Reference: PMC6145916, “Interaction of mitochondrial fission factor with dynamin related protein 1 governs physiological mitochondrial function in vivo” (Scientific Reports, 2018)

Experiments:
SH-SY5Y cells = experiment: Mitochondrial ROS (MitoSox Red) in GFP positive SH-SY5Y cells expressing P259 or alanine-substituted P259; type: cell-based, human; settings: P259 sequence alone (no TAT carrier) expressed from vector, two days, relative to empty GFP vector; n = 3, with 3 replicates
Protocol: (§1) Represented Western blot is cropped from a full blot shown in the Expanded Western Blots section of the Supplementary Information. […] Hoechst 33342 is shown in blue and Tom20 in green (n = 3, 10 images each). Below, quantification of the form factor (degree of branching) and major axis length (length of mitochondria). At least 6,000 mitochondrial fragments were measured for each condition. Mitochondrial reactive oxygen species (ROS) production (MitoSox Red) (c) and mitochondrial membrane potential (TMRM) (d) after overnight treatment with indicated concentrations of peptide or FCCP. Data are from 3 independent experiments per condition normalized to the average no peptide value. (e) Relative mitochondrial ROS (MitoSox Red) signal in GFP positive cells expressing full-length or alanine-substituted P259 at indicated amino acids after two days of transfection. Values are normalized to a GFP empty vector (n = 3, with 3 replicates). […] Data are mean ± s.e.
Using mitochondrial ROS as a phenotypic output, we determined which residues of P259 were necessary for its function.
DMI6000B inverted microscope. All mitochondria were imaged with a GFP fi lter. Then, green […]
filter every 30 seconds for 5 minutes. […]
GFP filter (Keyence). […] The GFP and MitoSox signals were measured in a ring around each nucleus. Average MitoSox levels were quantified in […]

[1] = system: neuroblastoma SH-SY5Y cells; experiment: Mitochondrial morphology (Tom20 immunofluorescence), SH-SY5Y; type: cell-based, human; settings: 4 µM TAT-P259 or 10 µM Mdivi-1, 30-minute treatment; n = 3, 10 images each
Protocol: as §1, with “s.e. […]” for “s.e.”
Cells were fixed onto Permanox plastic slides with 4% paraformaldehyde in PBS for 10 minutes at room temperature. Cells were permeabilized in 0.1% Triton X-100 and 1% normal goat serum (blocking buffer) for one hour at room temperature. Permeabilized cells were incubated overnight with primary anti-Tom20 antibody (Santa Cruze Biotech, sc-11415, 1:250 dilution) in a humidified chamber. Slides were subsequently incubated with FITC-conjugated goat anti-rabbit IgG for two hours at room temperature in a light-shielding humidified chamber. Cells were washed with blocking buffer and stained with Hoechst 33342 (Invitrogen, OR, USA, […]). Coverslips were mounted with a Slowfade antifade solution (Invitrogen, OR, USA). Images were acquired using an LSM 700 confocal laser-s canning microsc ope equipped with a Plan Apochromat 63x/1.4 NA oil-immersion objective (Zeiss).
Mitochondrial morphology analysis
High-throughput image analysis of mitochondrial morphology was performed using MATLAB with the Image Processing toolkit. Background illumination, obtained by morphological opening of the image, was subtracted from the original image. The image was then passed through a top - hat transformation to highlight objects from the background followed by a pixel-wis e adaptive low-pas s Wiener filter to remove noise. A 90th percentile threshold was used to convert the image to a binary image. Erroneously large and small objects were removed from the image and morphological features were extracted from the binary objects. Major axis length is defined as th e length of the longest line that can be drawn through a binary object while the minor axis length is defined as the length of the shortest line. The aspect ratio is defined by the major axis length divided by the minor axis length. […]

Drp1 = settings: cited from earlier work
Description: However, Mdivi-1 cannot distinguish between Drp1′s physiological and pathological activities. […] Strikingly, while inhibiting the interaction between Drp1 and Fis1 slo ...

[2] = molecular target: T1, recombinant human Drp1 (dynamin related protein 1) (human, UniProt O00429 1-736); experiment: graphene surface with transistors measuring electrical conductance; settings: both partners purified
T1 construct: dynamin related protein 1 (Drp1), human, recombinant; details may stand in the Supplementary Methods; also called recombinant Drp1
T1 sequence (O00429 whole entry): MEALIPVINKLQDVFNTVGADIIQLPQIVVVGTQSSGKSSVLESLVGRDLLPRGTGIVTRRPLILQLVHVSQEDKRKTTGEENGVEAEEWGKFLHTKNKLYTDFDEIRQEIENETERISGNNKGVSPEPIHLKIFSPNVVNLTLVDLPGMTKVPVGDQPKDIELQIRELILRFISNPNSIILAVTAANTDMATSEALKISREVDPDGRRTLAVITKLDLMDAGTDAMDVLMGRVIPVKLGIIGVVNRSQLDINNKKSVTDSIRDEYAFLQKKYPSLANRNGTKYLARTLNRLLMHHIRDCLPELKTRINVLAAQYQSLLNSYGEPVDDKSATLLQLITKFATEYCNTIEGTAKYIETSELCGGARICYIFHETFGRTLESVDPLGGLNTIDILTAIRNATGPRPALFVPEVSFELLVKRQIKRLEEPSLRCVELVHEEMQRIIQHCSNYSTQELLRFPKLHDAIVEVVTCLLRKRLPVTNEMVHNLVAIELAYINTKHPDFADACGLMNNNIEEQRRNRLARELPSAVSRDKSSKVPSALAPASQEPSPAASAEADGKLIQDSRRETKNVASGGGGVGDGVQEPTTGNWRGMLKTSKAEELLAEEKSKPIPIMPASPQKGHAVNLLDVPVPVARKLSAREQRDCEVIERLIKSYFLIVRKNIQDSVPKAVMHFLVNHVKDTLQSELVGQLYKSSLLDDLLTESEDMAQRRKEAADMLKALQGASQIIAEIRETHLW

In the case of IIQLPEIVVV [P259 peptide], the “mitochondrial ROS levels (MitoSox) in GFP-positive cells” value (SH-SY5Y cells) is reported as “doubled mitochondrial ROS levels”.

In the case of `COc1cc(-n2c(=S)[nH]c3ccccc3c2=O)c(Cl)cc1Cl` [Mdivi-1, reference compound], the mitochondrial morphology [1] is given as “These effects were similar to treatment with Mdivi-1” and the “GTPase activity of Drp1” value (Drp1) is given as “inhibitor of the GTPase activity of Drp1”.

B1: P259 (peptide, UniProt O00429 22-31, looked up)
peptide: IIQLPEIVVV
notes: dynamin related protein 1 (Drp1), residues 22-31, with glutamine 27 replaced by glutamate as found in Mff; The text introduces the TAT carrier only for the cell experiments; whether the in vitro peptide carried it may be told in the Supplementary Methods; also called peptide P259
B1 showed a Kd [2] of 0.012 µM.
